Reference: patent US20050118290A1, “Compositions and method for treatment of steroid/nuclear receptor-mediated diseases” (University of Singapore, priority 2003, published 2005)

Target: T1, PPARγ (Homo sapiens, UniProt P37231)
T1 construct: expressed in transfected cells; host or cells: HeLa
T1 sequence (P37231 238-503 limits assumed): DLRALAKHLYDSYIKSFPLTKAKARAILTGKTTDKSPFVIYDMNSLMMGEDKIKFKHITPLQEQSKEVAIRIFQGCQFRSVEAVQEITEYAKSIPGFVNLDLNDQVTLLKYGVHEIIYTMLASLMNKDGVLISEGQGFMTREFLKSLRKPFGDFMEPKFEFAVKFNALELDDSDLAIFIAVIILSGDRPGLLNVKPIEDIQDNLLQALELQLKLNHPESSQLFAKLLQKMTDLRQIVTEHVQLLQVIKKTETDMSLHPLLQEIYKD
Experiment: Chimeric Gal4DBD-PPARγLBD receptor / UASg-luciferase reporter gene assay in HeLa cells
Type: cell-based
Description: In an example of such a reporter gene assay, a plasmid containing chimeric Ga14DBD-PPARLBD receptor cDNA was constructed by excising the ligand binding domain (LBD) of full length PPARγ and PPARα and ligating the resulting fragments in frame to the Ga14-DNA binding domain (DBD) of Saccharomyces cerevisiae in a pM vector (Clontech). Specifically, to construct Ga14DBD-PPARγLBD plasmid, pSG5 expression vector (Stratagene) containing full length PPARγ was excised with Rsa I and blunt ligated to Hind III site of pMGa14DBD expression plasmid (Clontech). To construct Ga14DBD-PPARαLBD plasmid, pSG5 expression vector (Stratagene) containing full length PPARα was excised with BstU I and BamH I and blunt-end ligated in frame to BamH I site of pMGa14DBD expression plasmid (Clontech). […] Ga14 DBD binds very strongly to the exogenous UASg promoter, thereby giving rise to a sensitive and specific assay. To measure PPARγ and PPARα agonist activity, HeLa cells were grown in 24-well microtiter plates and then transiently co-transfected with the two plasmids (chimeric PPAR receptor and UASg reporter gene) using Lipofectamine (Invitrogen). […] Concurrently, cells exposed to known PPAR ligands served as positive controls. Replicate wells, exposed to the vehicle solvent (i.e., ethanol or methanol) in which herbal extracts were dissolved, were used as negative controls. After the 40 hr incubation period, cells were rinsed with phosphate buffered saline (PBS), lysis buffer was added, and cell lysates were collected for measurement of luciferase activity using a luminometer. […] All data points are in triplicate. The data points represent the mean of triplicate wells. Luciferase activity in such an assay accurately reflects the activity of any ligands on PPARγ or PPARα.

Row | PPARγ activity comparable to % maximal activity of pioglitazone (30×10^−6 g/ml) [%] | maximal fold PPARγ activity (30×10^−6 g/ml) [fold] | Luciferase activity (Fold over vehicle ± SE) PPARγ/Pioglitazone (30 × 10^−6M) (calycosin 3 ×10^−6 g/mL) [Fold] | Luciferase activity (Fold over vehicle ± SE) PPARγ/Pioglitazone (30 × 10^−6M) (calycosin 10 ×10^−6 g/mL) [Fold] | Luciferase activity (Fold over vehicle ± SE) PPARγ/Pioglitazone (30 × 10^−6M) (calycosin 30 ×10^−6 g/mL) [Fold] | increase of the activity of maximal doses of PPARγ agonist (with pioglitazone 30×10^−6M) [fold] | PPARγ activity comparable to % maximal activity of pioglitazone (20×10^−6 g/m) [%] | maximal fold PPARγ activity (20×10^−6 g/m) [fold] | SMILES
1 | ~50 | 40 | 105 ± 10.7 | 162 ± 28.5 | 253 ± 30.7 | 3 |  |  | COc1ccc(-c2coc3cc(O)ccc3c2=O)cc1O [calycosin, 3′,7-Dihydroxy-4′-methoxyisoflavone]
2 |  |  |  |  |  |  | ~22 | 20 | O=c1c(-c2ccc(O)cc2)coc2cc(O)ccc12 [daidzein]
